Laboratory results as given in patent US8314078B2, “Silver nanoparticles as anti-microbial” (Vascular Vision Pharmaceutical Co., priority 2009, dated 2012).

Assays:
S. aureus = assay: Minimum Inhibition Concentration (MIC) assay, modified micro-broth dilution, S. aureus; type: cell-based, Staphylococcus aureus; settings: for activity against Staphylococcus aureus: at concentrations up to 1.0 μM; for MIC against S. aureus: mean±SEM, n=3, 18 hours at 37° C.
E. coli = assay: Minimum Inhibition Concentration (MIC) assay, modified micro-broth dilution, E. coli; type: cell-based, Escherichia coli; settings: for activity against Escherichia coli: at concentrations up to 1.0 μM; for MIC against E. coli: mean±SEM, n=3, 18 hours at 37° C.

Substance | activity against Staphylococcus aureus (S. aureus) | MIC against S. aureus (S. aureus) | activity against Escherichia coli (E. coli) | MIC against E. coli (E. coli)
2,6-diaminopyridinyl heparin [DAPHP] | no activity | >1.0 μM of sugar | no activity | >1.0 μM of sugar
hyaluronan [HA] | no activity | >1.0 μM of sugar | no activity | >1.0 μM of sugar
